Key:
HEK293 cells [1] = assay: Tunicamycin assay (cell viability under ER stress, WST-8); format: cell-based; design: key to Efficacy 5 μM (ER stress inhibition activity) / Efficacy 25 μM (ER stress inhibition activity) / Efficacy 100 μM (ER stress inhibition activity): “−” indicates no activity; “+” indicates weak activity; “++” indicates strong activity; details: for Efficacy 5 μM (ER stress inhibition activity): compound 5 μM 12 to 18 h; for Efficacy 5 μM (ER stress inhibition activity) / Efficacy 25 μM (ER stress inhibition activity) / Efficacy 100 μM (ER stress inhibition activity): then tunicamycin 5 μg/mL 48 h; for Efficacy 25 μM (ER stress inhibition activity): compound 25 μM 12 to 18 h; for Efficacy 100 μM (ER stress inhibition activity): compound 100 μM 12 to 18 h
Protocol: HEK293 cells were seeded in 96-well plates ([…]) and incubated at 37° C. for 2 hours. The medium was then replaced with 100 μL of DMEM ([…]) containing self-assembling chemicals (20 or more compounds, including compounds of the present disclosure) and 1% DMSO. After incubation with any one of compounds 1 to 6 at a given concentration for 12 to 18 hours, HEK293 cells were treated with tunicamycin (5 μg/mL) or thapsigargin (10 μM) for 48 hours, and cell viability was measured using a WST-8 cell counting kit (Dojindo Laboratories).
Produced compounds XD8 to XD28 were subjected to a tunicamycin assay in the same manner as in Examples 1 to 9. Specifically, HEK293 cells were first seeded in a 96-well plate (1×10^4 cells/well) and incubated at 37° C. for 2 hours. The medium was then replaced with 100 μL of DMEM (10% FBS) containing a self-assembling chemical (each of compounds XD8 to XD28) and […]. After incubation with any of compounds XD8 to XD28 at a concentration of 5.0 μM, 25 μM, or 100 μM for 12 to 18 hours, HEK293 cells were treated with tunicamycin (5 μg/mL) for 48 hours, followed by measuring cell viability by using a WST-8 cell counting kit (Dojindo Laboratories).

HEK293 cells [2] = assay: Cell viability assay without ER stress inducer (cytotoxicity, WST-8); format: cell-based; details: 64 h
Protocol: HEK293 cells were treated with compound 1, compound 4, compound 5, or compound 6 (25 μM or 100 μM, respectively) for 64 hours. The vertical axis represents relative cell viability (unit: %), and the horizontal axis represents concentration (unit: μM). Cell viability was measured using a WST-8 cell counting kit. Error bars represent s.d. (n=3).
(§1) FIG. 31 is a graph showing the results of a cell viability assay using bafilomycin A1. HEK293 cells were treated with bafilomycin A1 in DMEM (10% FBS) for 48 hours. The vertical axis represents relative cell viability (unit: %), and the horizontal axis represents the concentration of bafilomycin A1 (unit: μM). Cell viability was measured using a WST-8 cell counting kit. Error bars represent s.d. (n=3).
as §1, with “32” for “31”, “MG132.” for “bafilomycin A1.”, “MG132” for “bafilomycin A1”, “t),” for “%),”
The term “Efficacy” denotes ER (endoplasmic reticulum) stress inhibition activity. The term “Toxicity” denotes cytotoxicity. In the ER stress inhibition activity (Efficacy), “−” indicates no activity, “+” indicates weak activity, and “++” indicates strong activity. In addition, “XD7” in Table 1 below represents compound 6. That is, XD7 and compound 6 are the same compound.

HEK293 cells [3] = assay: Fluorescence imaging of self-assemblies in living cells (DCVJ); format: cell-based; details: 100 μM, DCVJ 1.0 μM, 8 h
Protocol: HEK293 cells were incubated with compound 1, 4, 5, or 6 (25 or 100 μM) in the presence of 1.0 μM DCVJ in DMEM (10% FBS). Fluorescence and bright-field images were taken with a CV1000 confocal microscope equipped with a 40× objective lens (Yokogawa Electric Corporation).
The ability of compound 1 and its derivatives, compounds 4 to 6, to form assemblies was also monitored in living cells. […] HEK293 cells were treated with compound 1, 4, 5, or 6 (25 μM or 100 μM) and 1.0 μM of DCVJ for 8 hours. Fluorescence and bright-field images were taken with a CV1000 confocal microscope. HEK293 cells were treated with compound 1, 4, 5, or 6 (25 or 100 μM) and DCVJ (1.0 μM) for 8 hours and observed with a confocal microscope. […] The self-assembling ability of the molecules of compound 6 may be due to its cellular activity at that concentration, even at 25 μM. […] To further support the importance of self-organization formation in cellular activity, dose-response curves for compounds 1 and 6 were determined. The biological activity of the compounds' molecular assembly is expected to be more cooperative than that of the monomer and to show a steeper dose-response curve (Reference Material 18 below). […] Compound 6 is referred to as “selfonamide” below. […] P. A High-Throughput Screen for Aggregation-Based Inhibition in a Large Compound Library. J Med Chem 2007, 50 (10), 2385-2390. https://doi.org/10.1021/jm061317y.

HEK293 cells [4] = assay: Flow cytometry of intracellular assemblies of compound 1 with endocytosis inhibitors; format: cell-based; details: compound 1 100 μM; chloroquine 100 μM, chlorpromazine 20 μM; 16 h
Protocol: HEK293 cells were seeded in 12-well plates at 3×10^5 cells/well. After 2 hours of incubation at 37° C., cells were treated with compound 1 (100 μM) and 9-(2,2-dicyanovinyl)julolidine (DCVJ, 1.0 μM) in the presence or absence of chloroquine (100 μM), chlorpromazine (20 μM), and genistein ([…]) in DMEM (10% FBS) at 37° C. for 16 hours. Cells were harvested by incubation in 2 mM EDTA/PBS (pH of 7.4) for 10 minutes. Fluorescence of the cells was measured using a BD FACSAria II and analyzed with BD FACSDiva software.

[5] = Dynamic light scattering (DLS) of self-assemblies; format: physicochemical
Description: In the graphs on the left, the vertical axis “Z-ave. (nm)” represents the average particle size. In the graphs on the right, the vertical axis “Derived Count Rate (kcps)” represents the derived count rate. The horizontal axis represents the molar concentration (PM) of PBS (pH of 7.4) and DMEM (10% FBS). Error bars represent s.d. (n=3).
“Z-ave.” represents the average size of particles. Error bars represent s.d. (n=3).
“Z-average” represents the average size of particles. Error bars represent s.d. (n=3).

[6] = even at higher concentrations, tunicamycin 5.0 μg/mL 48 h

Structure (SMILES) | Efficacy 5 μM (ER stress inhibition activity) (HEK293 cells [1]) | Efficacy 25 μM (ER stress inhibition activity) (HEK293 cells [1]) | Efficacy 100 μM (ER stress inhibition activity) (HEK293 cells [1]) | further results
NS(=O)(=O)c1ccc(Nc2ccn3c(n2)nc(=O)c2sc4cc5c(cc4c23)OCO5)cc1 [XD10] | − | − | − | 
NS(=O)(=O)c1ccc(Nc2ccn3c(n2)nc(=O)c2sc4cc(OCc5ccccc5)ccc4c23)cc1 [XD18] | − | − | − | 
NS(=O)(=O)c1ccc(Nc2ccn3c(n2)nc(=O)c2sc4cc(Br)ccc4c23)cc1 [XD12] | − | + | ++ | 
O=C(O)CCCc1ccccc1 [PBA, reference compound] |  |  |  | Rescue from tunicamycin-induced cell death (secondary screen) (HEK293 cells [1]; [6]): little effect; EC50 (HEK293 cells [1]; tunicamycin 5.0 μg/mL 48 h, read-out: EC50 (dose-response curve, Hill equation)): 483 µM
Cc1ccc2c(c1)sc1c(=O)nc3nc(Nc4ccc(S(N)(=O)=O)cc4)ccn3c12 [compound 5] |  |  |  | Cytotoxicity (HEK293 cells [2]; at 25 μM): no obvious cytotoxicity; Cytotoxicity (HEK293 cells [2]; at 100 μM): slightly reduced cell viability; Size of assemblies/particles in living-cell imaging (HEK293 cells [3]): 5 µm; Ability to rescue cells from tunicamycin-induced ER stress (HEK293 cells [1]; tunicamycin 5.0 μg/mL 48 h): lost activity
NS(=O)(=O)c1ccc(Nc2ccn3c(n2)nc(=O)c2sc4cc(Cl)ccc4c23)cc1 [XD8] | − | + | ++ | 
CCCOc1ccc2c(c1)sc1c(=O)nc3nc(Nc4ccc(S(=O)(=O)NC(=N)N)cc4)ccn3c12 [XD25] |  | ++ | + | 
N=C(N)NS(=O)(=O)c1ccc(Nc2ccn3c(n2)nc(=O)c2sc4cc(OCc5ccccc5)ccc4c23)cc1 [XD28] |  |  | ++ | 
CCN(CC)CCCC(C)Nc1ccnc2cc(Cl)ccc12 (centres unmarked) [chloroquine] |  |  |  | Reduction of average DCVJ signal (intracellular assemblies of compound 1) (HEK293 cells [4]): about 30%
CCCCOc1ccc2c(c1)sc1c(=O)nc3nc(Nc4ccc(S(=O)(=O)NC(=N)N)cc4)ccn3c12 [XD26] |  | + | ++ | 
O=c1nc2nc(Nc3ccccc3)ccn2c2c1sc1cc(F)ccc12 [compound 2] |  |  |  | Self-assembly activity (self-assembling ability) [5]: confirmed to have self-assembly activity; Ability to rescue cells from tunicamycin-induced ER stress (HEK293 cells [1]; tunicamycin 5.0 μg/mL 48 h): eliminated the ability of the compounds to rescue cells
NS(=O)(=O)c1ccc(Nc2ccnc(N(C(=O)c3sc4cc(F)ccc4c3Cl)C(=O)c3sc4cc(F)ccc4c3Cl)n2)cc1 [TD-4C8] |  |  |  | Rescue from tunicamycin-induced cell death (secondary screen) (HEK293 cells [1]; compound 50 μM, tunicamycin 5.0 μg/mL 48 h): significantly rescued cells from tunicamycin-induced cell death
N=C(N)NS(=O)(=O)c1ccc(Nc2ccn3c(n2)nc(=O)c2sc4cc([N+](=O)[O-])ccc4c23)cc1 [XD20] |  |  | + | 
CCCCOc1ccc2c(c1)sc1c(=O)nc3nc(Nc4ccc(S(N)(=O)=O)cc4)ccn3c12 [XD16] | − | − | − | 
NS(=O)(=O)c1ccc(Nc2ccn3c(n2)nc(=O)c2sc4ccccc4c23)cc1 [compound 4] |  |  |  | Cytotoxicity (HEK293 cells [2]; up to 100 μM): no obvious cytotoxicity
COc1cc2sc3c(=O)nc4nc(Nc5ccc(S(N)(=O)=O)cc5)ccn4c3c2cc1OC [XD11] | − | − | ++ | 
CCCOc1ccc2c(c1)sc1c(=O)nc3nc(Nc4ccc(S(N)(=O)=O)cc4)ccn3c12 [XD15] | − | − | − | 
COc1ccc2c(c1)sc1c(=O)nc3nc(Nc4ccc(S(=O)(=O)NC(=N)N)cc4)ccn3c12 [XD21] |  | ++ | ++ | 
CS(=O)(=O)c1ccc(Nc2ccn3c(n2)nc(=O)c2sc4cc(F)ccc4c23)cc1 [compound 3] |  |  |  | Self-assembly activity (self-assembling ability) [5]: confirmed to have self-assembly activity; Ability to rescue cells from tunicamycin-induced ER stress (HEK293 cells [1]; tunicamycin 5.0 μg/mL 48 h): eliminated the ability of the compounds to rescue cells
CCOc1ccc2c(c1)sc1c(=O)nc3nc(Nc4ccc(S(N)(=O)=O)cc4)ccn3c12 [XD14] | − | − | − | 
CCCCCCOc1ccc2c(c1)sc1c(=O)nc3nc(Nc4ccc(S(N)(=O)=O)cc4)ccn3c12 [XD17] | − | − | + | 
CN(C)CCCN1c2ccccc2Sc2ccc(Cl)cc21 [chlorpromazine] |  |  |  | Reduction of average DCVJ signal (intracellular assemblies of compound 1) (HEK293 cells [4]): about 30%
NS(=O)(=O)c1ccc(Nc2ccn3c(n2)nc(=O)c2sc4cc([N+](=O)[O-])ccc4c23)cc1 [XD9] | − | ++ | + | 
C[C@H](CCC(=O)NCCS(=O)(=O)O)[C@H]1CC[C@H]2[C@@H]3[C@@H](O)C[C@@H]4C[C@H](O)CC[C@]4(C)[C@H]3CC[C@]12C [TUDCA, reference compound] |  |  |  | Rescue from tunicamycin-induced cell death (secondary screen) (HEK293 cells [1]; [6]): little effect
NS(=O)(=O)c1ccc(Nc2ccn3c(n2)nc(=O)c2sc4cc(F)c(F)cc4c23)cc1 [XD13] | − | ++ | ++ | 
